Test results from PMC12669672, “Structural insights into selective and dual antagonism of EP2 and EP4 prostaglandin receptors” (The EMBO Journal, 2025).
Values joined by “and” are separate entries in the source; they are usually repeats but may differ in a detail not shown here. Equal values may be shown once.

Key:
Test in all cases: GloSensor cAMP assay, antagonism of PGE2-induced cAMP
Type in all cases: cell-based
EP4 V72A = target: T1, EP4 V72A (Homo sapiens, UniProt P35408, V72A); details: for cAMP activity (∆pIC50 from EP4 WT): Grapiprant, V72A; for ΔpIC50: PGE2 0.5 nM, pIC50 mutant - pIC50 WT, mean
T1 construct: The full-length EP2 or EP4 was cloned into the pcDNA3.1 vector; FLAG (N); expressed in transfected cells; host or cells: AD293 cells
T1 sequence (P35408 whole entry V72A): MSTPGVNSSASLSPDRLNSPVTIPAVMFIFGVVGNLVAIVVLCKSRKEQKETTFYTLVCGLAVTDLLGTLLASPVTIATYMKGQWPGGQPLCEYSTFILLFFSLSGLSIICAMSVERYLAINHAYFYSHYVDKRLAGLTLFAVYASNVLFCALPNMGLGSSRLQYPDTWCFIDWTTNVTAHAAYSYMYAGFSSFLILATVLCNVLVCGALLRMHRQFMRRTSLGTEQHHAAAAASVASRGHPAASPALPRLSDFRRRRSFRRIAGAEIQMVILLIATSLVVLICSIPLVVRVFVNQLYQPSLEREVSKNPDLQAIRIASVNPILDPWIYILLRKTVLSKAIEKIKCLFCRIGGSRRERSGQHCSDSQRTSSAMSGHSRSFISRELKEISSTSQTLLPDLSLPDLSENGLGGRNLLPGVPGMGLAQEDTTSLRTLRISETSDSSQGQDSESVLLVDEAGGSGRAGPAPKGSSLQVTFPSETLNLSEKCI

EP4 V320A = target: T2, EP4 V320A (Homo sapiens, UniProt P35408, V320A); details: for ΔpIC50: PGE2 0.5 nM, pIC50 mutant - pIC50 WT, mean
T2 construct: The full-length EP2 or EP4 was cloned into the pcDNA3.1 vector (Invitrogen), incorporating an N-terminal FLAG tag; expressed in transfected cells; host or cells: AD293
T2 sequence (P35408 whole entry V320A): as the sequence (P35408 whole entry V72A) above, with A72V, V320A counted along it

EP4 S319A = target: T3, EP4 S319A (Homo sapiens, UniProt P35408, S319A); details: for cAMP activity (∆pIC50 from EP4 WT): Grapiprant, S319A; for ΔpIC50: PGE2 0.5 nM, pIC50 mutant - pIC50 WT, mean
T3 construct: The full-length EP2 or EP4 was cloned into the pcDNA3.1 vector (Invitrogen), incorporating an N-terminal FLAG tag; expressed in transfected cells; host or cells: AD293
T3 sequence (P35408 whole entry S319A): as the sequence (P35408 whole entry V72A) above, with A72V, S319A counted along it

[1] = 1 h, Grapiprant log([M]) -7, read-out: % cAMP activity (normalized to WT)
[2] = 1 h, Grapiprant log([M]) -8, read-out: % cAMP activity (normalized to WT)
[3] = 1 h, Grapiprant log([M]) -9, read-out: % cAMP activity (normalized to WT)
[4] = 1 h, Grapiprant log([M]) -10, read-out: % cAMP activity (normalized to WT)
[5] = 1 h, Grapiprant log([M]) -11, read-out: % cAMP activity (normalized to WT)
[6] = 1 h, Grapiprant log([M]) -12, read-out: % cAMP activity (normalized to WT)

Which IC50 (EP4 V72A) does the source give for `CCc1nc2c(C)nc(C)cc2n1-c1ccc(CCNC(=O)NS(=O)(=O)c2ccc(C)cc2)cc1` [Grapiprant] here?
Its IC50 is 110 nM.

What about the remaining activity at 0.1 µM (EP4 V72A; [1]) of the same compound?
The remaining activity at 0.1 µM was 25.9%.

What about the remaining activity at 0.01 µM (EP4 V72A; [2]) of the same compound?
Its remaining activity at 0.01 µM is 35.8%.

And the remaining activity at 0.001 µM (EP4 V72A; [3])?
Its remaining activity at 0.001 µM is 45%.

And the remaining activity at 0.0001 µM (EP4 V72A; [4])?
The remaining activity at 0.0001 µM was 46.7%.

And the remaining activity at 10 pM (EP4 V72A; [5])?
The remaining activity at 10 pM was 54.1%.

What about the remaining activity at 1 pM (EP4 V72A; [6]) of the same compound?
The remaining activity at 1 pM was 41%.

What about the “cAMP activity (∆pIC50 from EP4 WT)” value (EP4 V72A; Mean) of the same compound?
The value was -0.294.

And the “cAMP activity (∆pIC50 from EP4 WT)” value (EP4 V72A; single experiments 1st-3rd)?
Its value is -0.217 and -0.413 and -0.252.

What about the ΔpIC50 (EP4 V72A) of the same compound?
The ΔpIC50 was -0.29 ± 0.06.

And the ΔpIC50 (EP4 V72A; listed as grapiprant)?
Its ΔpIC50 is “reduced the potency”.

What about the IC50 (EP4 V320A) of the same compound?
Its IC50 is 339 nM.

And the remaining activity at 0.0001 µM (EP4 V320A; [4])?
Its remaining activity at 0.0001 µM is 39.6%.

What about the “cAMP activity (∆pIC50 from EP4 WT)” value (EP4 V320A; Grapiprant, V320A, Mean) of the same compound?
Its value is -0.775.

What about the ΔpIC50 (EP4 V320A) of the same compound?
Its ΔpIC50 is -0.78 ± 0.12.

What about the ΔpIC50 (EP4 V320A; listed as grapiprant) of the same compound?
Its ΔpIC50 is “reduced the potency”.

What about the IC50 (EP4 S319A) of the same compound?
Its IC50 is 186 nM.

What about the remaining activity at 10 µM (EP4 S319A; 1 h, Grapiprant log([M]) -5, read-out: % cAMP activity (normalized to WT)) of the same compound?
Its remaining activity at 10 µM is 3.59%.

What about the remaining activity at 1 µM (EP4 S319A; 1 h, Grapiprant log([M]) -6, read-out: % cAMP activity (normalized to WT)) of the same compound?
The remaining activity at 1 µM was 3.85%.

What about the remaining activity at 0.1 µM (EP4 S319A; [1]) of the same compound?
Its remaining activity at 0.1 µM is 22.9%.

And the remaining activity at 0.01 µM (EP4 S319A; [2])?
Its remaining activity at 0.01 µM is 31.9%.

What about the remaining activity at 0.001 µM (EP4 S319A; [3]) of the same compound?
Its remaining activity at 0.001 µM is 32.1%.

And the remaining activity at 0.0001 µM (EP4 S319A; [4])?
The remaining activity at 0.0001 µM was 27.9%.

And the remaining activity at 10 pM (EP4 S319A; [5])?
Its remaining activity at 10 pM is 33%.

What about the remaining activity at 1 pM (EP4 S319A; [6]) of the same compound?
The remaining activity at 1 pM was 28.4%.

And the “cAMP activity (∆pIC50 from EP4 WT)” value (EP4 S319A; Mean)?
Its value is -0.645.

What about the “cAMP activity (∆pIC50 from EP4 WT)” value (EP4 S319A; single experiments 1st-3rd) of the same compound?
The value was -0.523 and -0.642 and -0.769.

And the ΔpIC50 (EP4 S319A)?
The ΔpIC50 was -0.64 ± 0.07.

And the ΔpIC50 (EP4 S319A; listed as grapiprant)?
Its ΔpIC50 is “reduced the potency”.
